# Columns and labels:
# 5-HT3 [1] = molecular target: T1, 5-HT3 (Rattus norvegicus, UniProt P35563); experiment: Inhibition of the binding of ^3 H-BRL 43694 (5-HT3 binding affinity, rat entorhinal cortex); design: from tissue; host or cells: rat entorhinal cortex (brain cortical membranes)
# T1 sequence (P35563 24-483): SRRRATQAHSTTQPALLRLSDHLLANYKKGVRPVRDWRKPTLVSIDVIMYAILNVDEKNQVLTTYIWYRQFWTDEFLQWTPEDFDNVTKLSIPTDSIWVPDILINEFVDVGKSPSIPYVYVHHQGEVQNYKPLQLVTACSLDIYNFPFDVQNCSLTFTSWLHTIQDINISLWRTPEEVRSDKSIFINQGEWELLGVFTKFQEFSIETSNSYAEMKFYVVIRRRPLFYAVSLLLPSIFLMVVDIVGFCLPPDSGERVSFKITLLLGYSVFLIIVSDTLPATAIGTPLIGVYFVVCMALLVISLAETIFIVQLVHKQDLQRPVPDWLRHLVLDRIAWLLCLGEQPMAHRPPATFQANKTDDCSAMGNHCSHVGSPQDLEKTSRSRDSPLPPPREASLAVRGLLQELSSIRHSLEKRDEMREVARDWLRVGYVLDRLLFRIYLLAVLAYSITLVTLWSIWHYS
# From the text: The following Table II summarized the data obtained in this in-vitro test for the representative compound of the invention coded as FCE 28572.
# 5-HT3 binding affinity for rat entorhinal
# 5-HT3 [2] = molecular target: T1, 5-HT3; experiment: Inhibition of the von Bezold-Jarisch chemoreflex evoked by 5-HT in the anesthetized rat (5HT3 antagonist activity in vivo); design: evoked by 5-HT in the anesthetized rat; from tissue; host or cells: living anesthetized rat (in vivo; native receptors, by own knowledge on cardiac vagal afferents); details: 5-HT 30 μg/kg i.v.
# Method: Pharmacol. 326, 36-44 (1984).
# The following Table I reports in-vivo 5HT3 antagonist activity data obtained in this test for the representative compound of the invention 2-(5-methyl-1H-imidazol-4-yl)methyl-1,2-dihydro-imidazo[1,5-a]indol-3-one (internal code […]).
# elicited by 5-HT (30 μg/kg i.v.) by FCE 28572
# in the anesthetized rat. Values are mean ± in […]
structure (smiles),measurement,setting,value
"Cc1[nH]cnc1CN1Cc2cc3ccccc3n2C1=O [FCE 28572, 2-(5-methyl-1H-imidazol-4-yl)methyl-1,2-dihydro-imidazo[1,5-a]indol-3-one]",IC50,5-HT3 [1],0.023 µM
same,% inhibition of the von Bezold-Jarisch reflex elicited by 5-HT,"5-HT3 [2]; compound 100 μg/kg i.v., mean ± S.E.M. from 6 animals",86.7%
same,ED50,"5-HT3 [2]; iv, limits (10.4-31.7), read-out: ED50 (limits), inhibition of the von Bezold-Jarisch reflex elicited by 5-HT",0.0161 mg/kg

# — patent US5874457A, “Imidazolylalkyl derivatives of imidazo[1,5-a]indol-3-one” (Pharmacia & Upjohn S.p.A., priority 1994, dated 1999)
